# Test system: directly sowed Oryza sativa
# Assay: Test Example 3: effect on crop by application to foliage (Wagner pot, water depth 0.1-0.5 cm)
# Type: in vivo
# Details: Nineteenth Table; application to foliage; application herbicide amount 320 g/ha
# Summary of the method: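 Alluvial soil in 1/10000 are Wagner pots, sown and grown 14 days in a 25–30 °C greenhouse. An emulsifiable concentrate diluted in water to the set dose (g/ha) was sprayed on stems and leaves. Effect scored three weeks later on a 0–5 scale: 5 = ≥90% herbicidal ratio, 0 = ≤5%.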
row,Compound,b (effect on crop grade)
1,Cc1nnc(NC(=O)c2ccc(C(F)(F)F)n3c(-c4cc5ccccc5n4C)nnc23)o1 [1-059],0 (Herbicidal ratio of 5% or less (almost no effect))
2,COCCOC(=O)Cc1nnc2c(C(=O)Nc3nnc(C)o3)ccc(C(F)(F)F)n12 [1-060],2 (Herbicidal ratio of 20% or more and less than 40%)
3,CC(=O)OCc1nnc2c(C(=O)Nc3nnc(C)o3)ccc(C(F)(F)F)n12 [1-062],2 (Herbicidal ratio of 20% or more and less than 40%)
4,COCCSc1nnc2c(C(=O)Nc3nnc(C)o3)ccc(C(F)(F)F)n12 [1-063],2 (Herbicidal ratio of 20% or more and less than 40%)
5,C=CCSc1nnc2c(C(=O)Nc3nnc(C)o3)ccc(C(F)(F)F)n12 [1-064],2 (Herbicidal ratio of 20% or more and less than 40%)
6,CN(C)c1nnc2c(C(=O)Nc3nnco3)ccc(C(F)(F)F)n12 [1-103],4 (Herbicidal ratio of 70% or more and less than 90%)
7,Cc1nnc(NC(=O)c2ccc(C(F)(F)F)n3c(CC4CC4)nnc23)o1 [1-104],0 (Herbicidal ratio of 5% or less (almost no effect))
8,Cc1nnc(NC(=O)c2ccc(C(F)(F)F)n3c(C4(C)CC4(Cl)Cl)nnc23)o1 (centres unmarked) [1-105],0 (Herbicidal ratio of 5% or less (almost no effect))
9,CCSc1nnc2c(C(=O)Nc3nnco3)ccc(C(F)(F)F)n12 [1-106],3 (Herbicidal ratio of 40% or more and less than 70%)
10,COCCOCc1nnc2c(C(=O)Nc3nnco3)ccc(C(F)(F)F)n12 [1-107],3 (Herbicidal ratio of 40% or more and less than 70%)
11,CCCSc1nnc2c(C(=O)Nc3nnco3)ccc(C(F)(F)F)n12 [1-108],1 (Herbicidal ratio of 5% or more and less than 20%)
12,COCCNc1nnc2c(C(=O)Nc3nnc(C)o3)ccc(C(F)(F)F)n12 [1-109],2 (Herbicidal ratio of 20% or more and less than 40%)
13,O=C(Nc1nnco1)c1ccc(C(F)(F)F)n2c(N3CCOCC3)nnc12 [1-110],5 (Herbicidal ratio of 90% or more (almost completely withered))
14,CCOc1nnc2c(C(=O)Nc3nnco3)ccc(C(F)(F)F)n12 [1-112],0 (Herbicidal ratio of 5% or less (almost no effect))
15,Cc1nnc(NC(=O)c2ccc(C(F)(F)F)n3c(SCc4ccccc4)nnc23)o1 [1-113],0 (Herbicidal ratio of 5% or less (almost no effect))
16,COc1ccc(CSc2nnc3c(C(=O)Nc4nnc(C)o4)ccc(C(F)(F)F)n23)cc1 [1-114],0 (Herbicidal ratio of 5% or less (almost no effect))
17,Cc1nnc(NC(=O)c2ccc(C(F)(F)F)n3c(SCC4CC4)nnc23)o1 [1-115],0 (Herbicidal ratio of 5% or less (almost no effect))
18,Cc1nnc(NC(=O)c2ccc(C(F)(F)F)n3c(SCC4CCCO4)nnc23)o1 (centres unmarked) [1-116],0 (Herbicidal ratio of 5% or less (almost no effect))
19,Cc1nnc(NC(=O)c2ccc(C(F)(F)F)n3c(N4CCSCC4)nnc23)o1 [1-118],3 (Herbicidal ratio of 40% or more and less than 70%)
20,Cc1nnc(NC(=O)c2ccc(C(F)(F)F)n3c(N4CC[S+]([O-])CC4)nnc23)o1 [1-119],3 (Herbicidal ratio of 40% or more and less than 70%)
21,Cc1nnc(NC(=O)c2ccc(C(F)(F)F)n3c(N4CCS(=O)(=O)CC4)nnc23)o1 [1-120],3 (Herbicidal ratio of 40% or more and less than 70%)

row,Compound,b (effect on crop grade)
1,COCCN(C)c1nnc2c(C(=O)Nc3nnco3)ccc(C(F)(F)F)n12 [1-121],3 (Herbicidal ratio of 40% or more and less than 70%)
2,CC(C)N(C)c1nnc2c(C(=O)Nc3nnco3)ccc(C(F)(F)F)n12 [1-122],3 (Herbicidal ratio of 40% or more and less than 70%)
3,CN(c1nnc2c(C(=O)Nc3nnco3)ccc(C(F)(F)F)n12)C1CCCCC1 [1-123],1 (Herbicidal ratio of 5% or more and less than 20%)
4,Cc1nnc(NC(=O)c2ccc(C(F)(F)F)n3c(SCC(F)(F)F)nnc23)o1 [1-124],0 (Herbicidal ratio of 5% or less (almost no effect))
5,CC(=O)CSc1nnc2c(C(=O)Nc3nnc(C)o3)ccc(C(F)(F)F)n12 [1-125],1 (Herbicidal ratio of 5% or more and less than 20%)
6,Cc1nnc(NC(=O)c2ccc(C(F)(F)F)n3c(SCC4OCCO4)nnc23)o1 [1-126],0 (Herbicidal ratio of 5% or less (almost no effect))
7,COCCN(C)c1nnc2c(C(=O)Nc3nnc(C)o3)ccc(C(F)(F)F)n12 [1-129],3 (Herbicidal ratio of 40% or more and less than 70%)
8,CSCCNc1nnc2c(C(=O)Nc3nnc(C)o3)ccc(C(F)(F)F)n12 [1-130],2 (Herbicidal ratio of 20% or more and less than 40%)
9,Cc1nnc(NC(=O)c2ccc(C(F)(F)F)n3c(NCC(F)(F)F)nnc23)o1 [1-131],2 (Herbicidal ratio of 20% or more and less than 40%)
10,Cc1nnc(NC(=O)c2ccc(C(F)(F)F)n3c(N(C)C(C)C)nnc23)o1 [1-132],3 (Herbicidal ratio of 40% or more and less than 70%)
11,Cc1nnc(NC(=O)c2ccc(C(F)(F)F)n3c(N(C)C4CCCCC4)nnc23)o1 [1-133],0 (Herbicidal ratio of 5% or less (almost no effect))
12,CCN(C)c1nnc2c(C(=O)Nc3nnc(C)o3)ccc(C(F)(F)F)n12 [1-134],2 (Herbicidal ratio of 20% or more and less than 40%)
13,CCN(CC)c1nnc2c(C(=O)Nc3nnc(C)o3)ccc(C(F)(F)F)n12 [1-135],1 (Herbicidal ratio of 5% or more and less than 20%)
14,Cc1nnc(NC(=O)c2ccc(C(F)(F)F)n3c(N4CCCC4)nnc23)o1 [1-136],2 (Herbicidal ratio of 20% or more and less than 40%)
15,CCN(C)c1nnc2c(C(=O)Nc3nnco3)ccc(C(F)(F)F)n12 [1-137],3 (Herbicidal ratio of 40% or more and less than 70%)
16,CCN(CC)c1nnc2c(C(=O)Nc3nnco3)ccc(C(F)(F)F)n12 [1-138],3 (Herbicidal ratio of 40% or more and less than 70%)
17,O=C(Nc1nnco1)c1ccc(C(F)(F)F)n2c(N3CCCC3)nnc12 [1-139],1 (Herbicidal ratio of 5% or more and less than 20%)
18,CC(C)c1nnc2c(C(=O)Nc3nnc(C[S+](C)[O-])o3)ccc(C(F)(F)F)n12 (centres unmarked) [1-143],0 (Herbicidal ratio of 5% or less (almost no effect))
19,COc1ccc(N(C)c2nnc3c(C(=O)Nc4nnc(C)o4)ccc(C(F)(F)F)n23)cc1 [1-165],0 (Herbicidal ratio of 5% or less (almost no effect))
20,COC1CCC(c2nnc3c(C(=O)Nc4nnc(C)o4)ccc(C(F)(F)F)n23)CC1 (centres unmarked) [1-169],1 (Herbicidal ratio of 5% or more and less than 20%)
21,Cn1nnnc1NC(=O)c1ccc(C(F)(F)F)n2c(C3CC3)nnc12 [2-005],2 (Herbicidal ratio of 20% or more and less than 40%)

row,Compound,b (effect on crop grade)
1,CCC(CC)c1nnc2c(C(=O)Nc3nnnn3C)ccc(C(F)(F)F)n12 [2-006],5 (Herbicidal ratio of 90% or more (almost completely withered))
2,Cn1nnnc1NC(=O)c1ccc(C(F)(F)F)n2c(-c3ccccc3)nnc12 [2-007],4 (Herbicidal ratio of 70% or more and less than 90%)
3,Cn1nnnc1NC(=O)c1ccc(C(F)(F)F)n2c(Cl)nnc12 [2-008],0 (Herbicidal ratio of 5% or less (almost no effect))
4,Cn1nnnc1NC(=O)c1ccc(C(F)(F)F)n2c(Br)nnc12 [2-009],4 (Herbicidal ratio of 70% or more and less than 90%)
5,COc1ccc(-c2nnc3c(C(=O)Nc4nnnn4C)ccc(C(F)(F)F)n23)cc1 [2-011],5 (Herbicidal ratio of 90% or more (almost completely withered))
6,Cn1nnnc1NC(=O)c1ccc(C(F)(F)F)n2c(-c3ccc(Cl)cc3)nnc12 [2-012],2 (Herbicidal ratio of 20% or more and less than 40%)
7,CSc1nnc2c(C(=O)Nc3nnnn3C)ccc(C(F)(F)F)n12 [2-013],5 (Herbicidal ratio of 90% or more (almost completely withered))
8,COCCOCc1nnc2c(C(=O)Nc3nnnn3C)ccc(C(F)(F)F)n12 [2-014],5 (Herbicidal ratio of 90% or more (almost completely withered))
9,Cn1nnnc1NC(=O)c1ccc(C(F)(F)F)n2c(COCC(F)(F)F)nnc12 [2-015],4 (Herbicidal ratio of 70% or more and less than 90%)
10,CCC(C)c1nnc2c(C(=O)Nc3nnnn3C)ccc(C(F)(F)F)n12 (centres unmarked) [2-016],5 (Herbicidal ratio of 90% or more (almost completely withered))
11,Cc1cc(-c2nnc3c(C(=O)Nc4nnnn4C)ccc(C(F)(F)F)n23)no1 [2-017],5 (Herbicidal ratio of 90% or more (almost completely withered))
12,CCCc1nnc2c(C(=O)Nc3nnnn3C)ccc(C(F)(F)F)n12 [2-019],5 (Herbicidal ratio of 90% or more (almost completely withered))
13,Cn1nnnc1NC(=O)c1ccc(C(F)(F)F)n2c(COc3ccccc3)nnc12 [2-020],4 (Herbicidal ratio of 70% or more and less than 90%)
14,Cn1nnnc1NC(=O)c1ccc(C(F)(F)F)n2c(C3CCCC3)nnc12 [2-021],5 (Herbicidal ratio of 90% or more (almost completely withered))
15,Cn1nnnc1NC(=O)c1ccc(C(F)(F)F)n2c(C3CCOC3)nnc12 (centres unmarked) [2-022],5 (Herbicidal ratio of 90% or more (almost completely withered))
16,CC(C)c1nnc2c(C(=O)N(C)c3nnnn3C)ccc(C(F)(F)F)n12 [2-023],1 (Herbicidal ratio of 5% or more and less than 20%)
17,CCSc1nnc2c(C(=O)Nc3nnnn3C)ccc(C(F)(F)F)n12 [2-024],5 (Herbicidal ratio of 90% or more (almost completely withered))
18,CC(C)Sc1nnc2c(C(=O)Nc3nnnn3C)ccc(C(F)(F)F)n12 [2-025],5 (Herbicidal ratio of 90% or more (almost completely withered))
19,CCOCc1nnc2c(C(=O)Nc3nnnn3C)ccc(C(F)(F)F)n12 [2-026],5 (Herbicidal ratio of 90% or more (almost completely withered))
20,Cn1nnnc1NC(=O)c1ccc(C(F)(F)F)n2c(C(C)(C)C)nnc12 [2-027],5 (Herbicidal ratio of 90% or more (almost completely withered))
